The results in this text go back to patent US20090257979A1, “Novel Inhibitors of Hepatitis C Virus Replication” (INTERMUNE, INC., priority 2008, published 2009).

The test system of one assay is HCV Replicon. The experiment in a line: HCV Replicon inhibition. It is filed as cell-based. The settings on record: Hepatitis C virus. Background: Replicon systems follow genome replication, usually without infectious particles.
Another assay has as its target T1, NS5B polymerase protein (Hepatitis C virus genotype 1a, UniProt P27958).
T1 construct: pre-incubated with the RNA template and NS5B polymerase protein; Replizyme
The experiment in a line: biochemical. The settings on record: pre-incubated 37° C. 30 minutes; RdRp reaction 90 minutes at 37° C.; read-out: HCV NS5B inhibition EC50. Here is the method:
The compounds were tested in the Replizyme HCV heterotemplate radioactive RNA-dependent RNA-polymerase (RdRp) assay. The test compounds were pre-incubated with the RNA template and NS5B polymerase protein at 37° C. for 30 minutes. The RdRp reaction was initiated with the addition of the NTPs to the buffer-NS5B-compound mix, and was allowed to proceed for 90 minutes at 37° C. Control reactions included: no enzyme, 5% DMSO (test compound solvent), no compound/solvent, Cordycepin-TP and HCV-796 (IC50 values used as a reference inhibition). Radioactive products were collected by applying the stopped reaction to DE-81 paper, air dried prior to washing with buffer comprising NaH2PO4 and sodium pyrophosphate to remove unincorporated ^32P-GTP in the NTP mix, and rinsed with dH2O followed by 100% ethanol. The DE-81 paper was air dried, squares cut out and placed in scintillation tubes for counting.

T1 sequence (P27958 2421-3011): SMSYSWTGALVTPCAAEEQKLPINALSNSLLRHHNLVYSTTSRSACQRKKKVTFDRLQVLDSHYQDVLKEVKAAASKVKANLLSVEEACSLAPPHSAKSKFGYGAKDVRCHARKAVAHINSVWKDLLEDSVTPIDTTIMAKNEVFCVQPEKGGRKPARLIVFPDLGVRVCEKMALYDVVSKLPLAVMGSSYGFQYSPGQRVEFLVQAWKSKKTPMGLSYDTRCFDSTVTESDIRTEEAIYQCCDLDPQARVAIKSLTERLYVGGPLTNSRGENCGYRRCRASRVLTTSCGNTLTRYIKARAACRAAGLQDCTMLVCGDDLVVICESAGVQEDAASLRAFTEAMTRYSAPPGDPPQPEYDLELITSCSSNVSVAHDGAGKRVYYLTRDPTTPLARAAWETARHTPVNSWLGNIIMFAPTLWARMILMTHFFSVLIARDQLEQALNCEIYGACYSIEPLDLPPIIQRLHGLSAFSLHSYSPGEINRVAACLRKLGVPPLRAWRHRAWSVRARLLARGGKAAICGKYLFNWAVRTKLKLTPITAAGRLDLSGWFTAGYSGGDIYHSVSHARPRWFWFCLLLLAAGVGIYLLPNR

Broadly, the EC50 is the concentration that produces a half-maximal response. Regarding `CC(C)CCc1c(O)c(C2=Nc3ccccc3S(=O)(=O)N2)c(O)c2ccccc12` [Compound 104, 1,3-dihydroxy-2-(1,1-dioxo-2H-(1,2,4)-benzothiadiazin-3-yl)-4-(3-methylbutyl)naphthalene], the EC50 lay within 1000 to 10000 nM in the assay on HCV Replicon and 100 to 1000 nM on NS5B polymerase protein.
In the case of `O=S1(=O)NC(c2c(O)c(Br)c3ccccc3c2O)=Nc2ccccc21` [Compound 105, 4-bromo-1,3-dihydroxy-2-(1,1-dioxo-2H-(1,2,4)-benzothiadiazin-3-yl)naphthalene], the EC50 in the assay with HCV Replicon and at NS5B polymerase protein was 1000 to 10000 nM in each case.
`CC(C)CCn1cc(C2=NS(=O)(=O)c3ccccc3N2)c2ccccc21` [Compound 201]: the EC50 in the assay with HCV Replicon and on NS5B polymerase protein was 10000 to 50000 nM in each case.
Take `CC(C)CCn1nc(C2=NS(=O)(=O)c3ccccc3N2)c2ccccc21` [Compound 202]: the concentration for a half-maximal effect (EC50) in the assay with HCV Replicon and at NS5B polymerase protein was 10000 to 50000 nM each time.
Turning to `CC(C)CCn1cc(C2=NS(=O)(=O)c3cc(NS(C)(=O)=O)ccc3N2)c2ccccc21` [Compound 203], the values for the EC50 in the assay on HCV Replicon and at NS5B polymerase protein were > 50000 nM and 100 to 1000 nM, respectively.
With `CC(C)CCn1nc(C2=NS(=O)(=O)c3cc(NS(C)(=O)=O)ccc3N2)c2ccccc21` [Compound 204], the concentration for a half-maximal effect (EC50) in the assay with HCV Replicon lay within 10000 to 50000 nM; at NS5B polymerase protein, 100 to 1000 nM.
Turning to `COc1cccc2c1c(C1=NS(=O)(=O)c3cc(NS(C)(=O)=O)ccc3N1)cn2CCC(C)C` [Compound 205], the EC50 in the assay on HCV Replicon and on NS5B polymerase protein was 10000 to 50000 nM in each case.
Consider `COc1ccc2c(C3=NS(=O)(=O)c4cc(NS(C)(=O)=O)ccc4N3)cn(CCC(C)C)c2c1` [Compound 206], for which the concentration giving a half-maximal response (EC50) was > 50000 nM in the assay with HCV Replicon and 1000 to 10000 nM at NS5B polymerase protein.
The like results for `CC(C)CCn1cc(C2=NS(=O)(=O)c3cc(NS(C)(=O)=O)ccc3N2)c2cc(Cl)ccc21` [Compound 207] were, in that order, > 50000 nM and 1000 to 10000 nM.
In the same order, the values of `CC(C)CCn1cc(C2=NS(=O)(=O)c3cc(NS(C)(=O)=O)ccc3N2)c2cccc(Cl)c21` [Compound 208] are > 50000 nM and 100 to 1000 nM.
In the case of `CC(C)CCn1cc(C2=NS(=O)(=O)c3cc(NS(C)(=O)=O)ccc3N2)c2c(O)cccc21` [Compound 209], the EC50 is > 50000 nM in the assay with HCV Replicon and 100 to 1000 nM on NS5B polymerase protein.
In the case of `CC(C)CCn1cc(C2=NS(=O)(=O)c3cc(NS(C)(=O)=O)ccc3N2)c2ccc(O)cc21` [Compound 210], the half-maximal effective concentration (EC50) in the assay with HCV Replicon is 10000 to 50000 nM; on NS5B polymerase protein it was 100 to 1000 nM.
The like results for `CC(C)CCn1cc(C2=NS(=O)(=O)c3cc(NS(C)(=O)=O)ccc3N2)c2ccc(C(C)C)cc21` [Compound 211] were, in that order, 10000 to 50000 nM and 1000 to 10000 nM.
Take `CC(C)CCn1cc(C2=NS(=O)(=O)c3cc(NS(C)(=O)=O)ccc3N2)c2cc(Br)ccc21` [Compound 212]: the concentration for a half-maximal effect (EC50) in the assay on HCV Replicon is > 50000 nM; at NS5B polymerase protein it was 1000 to 10000 nM.
The like results for `CC(C)CCC1(C)C(=O)C(C2=Nc3ccccc3S(=O)(=O)N2)=C(O)c2cccn21` (stereo not shown) [Compound 213] were, in that order, 10000 to 50000 nM and < 100 nM.
With `CC(C)CCC1(C)C(=O)C(C2=NS(=O)(=O)c3cc(NS(C)(=O)=O)ccc3N2)=C(O)c2cccn21` (stereo not shown) [Compound 214], the results for the EC50 in the assay on HCV Replicon and on NS5B polymerase protein were 100 to 1000 nM and < 100 nM, respectively.
Take `CC(C)CCC1(C)C(=O)C(C2=NS(=O)(=O)c3cc(NS(C)(=O)=O)ccc3N2)=C(O)c2nccn21` (stereo not shown) [Compound 215]: the concentration for a half-maximal effect (EC50) at NS5B polymerase protein was 1000 to 10000 nM.
For the molecule `CC(C)CCc1c2n(c(O)c(C3=NS(=O)(=O)c4cc(NS(C)(=O)=O)ccc4N3)c1=O)CCCC2` [Compound 220], the EC50 was 100 to 1000 nM in the assay with HCV Replicon and < 100 nM at NS5B polymerase protein.
In the case of `CC(C)CCn1c(=O)c(C2=NS(=O)(=O)c3ccccc3N2)c(O)n2ccnc12` [Compound 221, 6-(1,1-Dioxo-1,4-dihydro-1lambda*6*-benzo[1,2,4]thiadiazin-3-yl)-5-hydroxy-8-(3-methyl-butyl)-8H-imidazo[1,2-a]pyrimidin-7-one], the EC50 in the assay on HCV Replicon was > 50000 nM; on NS5B polymerase protein it was 100 to 1000 nM.
The like results for `CC(C)CCn1c(=O)c(C2=NS(=O)(=O)c3cc(NS(C)(=O)=O)ccc3N2)c(O)n2ccnc12` [Compound 222, N-{3-[5-Hydroxy-8-(3-methyl-butyl)-7-oxo-7,8-dihydro-imidazo[1,2-a]pyrimidin-6-yl]-1,1-dioxo-1,4-dihydro-1lambda*6*-benzo[1,2,4]thiadiazin-7-yl}-methanesulfonamide] were, in that order, 100 to 1000 nM and < 100 nM.
In the case of `CC(C)CCC1(C)C(=O)C(C2=NS(=O)(=O)c3cc(NS(C)(=O)=O)ccc3N2)=C(O)c2ccnn21` (stereo not shown) [Compound 223], the EC50 was 1000 to 10000 nM with HCV Replicon and < 100 nM at NS5B polymerase protein.
The like results for `CS(=O)(=O)Nc1ccc2c(c1)S(=O)(=O)N=C(c1cccc(C(F)(F)F)c1)N2` [Compound 224] were, in that order, < 100 nM and 10000 to 50000 nM.
Turning to `CC(C)CCc1c(=O)c(C2=NS(=O)(=O)c3cc(NS(C)(=O)=O)ccc3N2)c(O)n2ccccc12` [Compound 225], the EC50 with HCV Replicon and at NS5B polymerase protein was < 100 nM in each case.
In the case of `CC(C)CCc1c(=O)c(C2=NS(=O)(=O)c3cc(NS(=O)(=O)C4CC4)ccc3N2)c(O)n2ccccc12` [Compound 226], the EC50 in the assay on HCV Replicon and at NS5B polymerase protein was < 100 nM each time.
Regarding `CC(C)(C)CCc1c(=O)c(C2=NS(=O)(=O)c3cc(NS(C)(=O)=O)ccc3N2)c(O)n2ccccc12` [Compound 227], the half-maximal effective concentration (EC50) in the assay on HCV Replicon and on NS5B polymerase protein was < 100 nM throughout.
Take `CS(=O)(=O)Nc1ccc2c(c1)S(=O)(=O)N=C(c1c(O)n3ccccc3c(Cc3ccc(F)cc3)c1=O)N2` [Compound 228]: the EC50 with HCV Replicon and on NS5B polymerase protein was < 100 nM each time.
In the case of `CC(C)CCn1c(=O)c(C2=NS(=O)(=O)c3cc(NS(C)(=O)=O)ccc3N2)c(O)n2nccc12` [Compound 229, N-{3-[7-Hydroxy-4-(3-methyl-butyl)-5-oxo-4,5-dihydro-pyrazolo[1,5-a]pyrimidin-6-yl]-1,1-dioxo-1,4-dihydro-1lambda*6*-benzo[1,2,4]thiadiazin-7-yl}-methanesulfonamide], the half-maximal effective concentration (EC50) with HCV Replicon was < 100 nM; at NS5B polymerase protein, 100 to 1000 nM.
For `CS(=O)(=O)Nc1ccc2c(c1)S(=O)(=O)N=C(c1c(O)n3nccc3n(Cc3ccccc3)c1=O)N2` [Compound 230, N-[3-(4-Benzyl-7-hydroxy-5-oxo-4,5-dihydro-pyrazolo[1,5-a]pyrimidin-6-yl)-1,1-dioxo-1,4-dihydro-1lambda*6*-benzo[1,2,4]thiadiazin-7-yl]-methanesulfonamide], the EC50 in the assay with HCV Replicon was < 100 nM; at NS5B polymerase protein, 1000 to 10000 nM.
In the case of `CS(=O)(=O)Nc1ccc2c(c1)S(=O)(=O)N=C(c1c(O)n3nccc3n(Cc3ccc(F)cc3)c1=O)N2` [Compound 231, N-{3-[4-(4-Fluoro-benzyl)-7-hydroxy-5-oxo-4,5-dihydro-pyrazolo[1,5-a]pyrimidin-6-yl]-1,1-dioxo-1,4-dihydro-1lambda*6*-benzo[1,2,4]thiadiazin-7-yl}-methanesulfonamide], the concentration for a half-maximal effect (EC50) in the assay on HCV Replicon is < 100 nM; on NS5B polymerase protein, 10000 to 50000 nM.
In the same order, the values of `CS(=O)(=O)Nc1ccc2c(c1)S(=O)(=O)N=C(c1c(O)n3nccc3n(CCc3ccc(F)cc3)c1=O)N2` [Compound 232, N-(3-{4-[2-(4-Fluoro-phenyl)-ethyl]-7-hydroxy-5-oxo-4,5-dihydro-pyrazolo[1,5-a]pyrimidin-6-yl}-1,1-dioxo-1,4-dihydro-1lambda*6*-benzo[1,2,4]thiadiazin-7-yl)-methanesulfonamide] are < 100 nM and > 50000 nM.
In the same order, the values of `Cc1cc2n(CCC(C)C)c(=O)c(C3=NS(=O)(=O)c4cc(NS(C)(=O)=O)ccc4N3)c(O)n2n1` [Compound 233, N-{3-[7-Hydroxy-2-methyl-4-(3-methyl-butyl)-5-oxo-4,5-dihydro-pyrazolo[1,5-a]pyrimidin-6-yl]-1,1-dioxo-1,4-dihydro-1lambda*6*-benzo[1,2,4]thiadiazin-7-yl}-methanesulfonamide] are < 100 nM and 1000 to 10000 nM.
In the same order, the values of `CC(C)CCn1c(=O)c(C2=NS(=O)(=O)c3cc(NS(C)(=O)=O)ccc3N2)c(O)n2nc(C3CC3)cc12` [Compound 234, N-{3-[2-cyclopropyl-7-Hydroxy-4-(3-methyl-butyl)-5-oxo-4,5-dihydro-pyrazolo[1,5-a]pyrimidin-6-yl]-1,1-dioxo-1,4-dihydro-1lambda*6*-benzo[1,2,4]thiadiazin-7-yl}-methanesulfonamide] are < 100 nM and 10000 to 50000 nM.
`CC(C)CCn1c(=O)c(C2=NS(=O)(=O)c3cc(NS(C)(=O)=O)ccc3N2)c(O)n2ncnc12` [Compound 235, N-{3-[7-Hydroxy-4-(3-methyl-butyl)-5-oxo-4,5-dihydro-[1,2,4]triazolo[1,5-a]pyrimidin-6-yl]-1,1-dioxo-1,4-dihydro-1lambda*6*-benzo[1,2,4]thiadiazin-7-yl}-methanesulfonamide]: the EC50 with HCV Replicon is < 100 nM; at NS5B polymerase protein it was 1000 to 10000 nM.
Regarding `Cc1cc2c(o1)c(C1=NS(=O)(=O)c3cc(NS(C)(=O)=O)ccc3N1)c(=O)n1ccccc21` [Compound 242], the EC50 at NS5B polymerase protein lay within 10000 to 50000 nM.
Turning to `CS(=O)(=O)Nc1ccc2c(c1)S(=O)(=O)N=C(c1c(O)n3ccccc3c(Cc3cccs3)c1=O)N2` [Compound 244], the concentration for a half-maximal effect (EC50) on NS5B polymerase protein was < 100 nM.
